Assay results: PubChem BioAssay AID270 (DTP/NCI, 2004)
“And” between values parts separate entries of the source, which are not always exact repeats. Identical values can stand only once. Results filed as inconclusive are left out. Where a SMILES comes first, the peptide text is derived from it. [ ]: non-standard residue; d: D form. The star is where a group is joined. ξ: configuration not given here. ξAsp(βξ-Me) = CC(C(=O)O)C(N)C(=O)O; X4 = CC(N*)C1NC(=O)C2CCCCN2C1=O; ξAbu(3ξ-NH2) = CC(N)C(N)C(=O)O; X3 = CCC(C)CCC/C=C/CC(=O)*

Tested on: BDF1 mice, s.c. Lewis lung carcinoma, T/C %
Assay: NCI In Vivo Anticancer Drug Screen. Data for tumor model Lewis Lung Carcinoma (subcutaneous) in B6D2F1 (BDF1) mice
Protocol: The antitumor activity of compounds was measured in mice bearing transplantable tumors. Survival or tumor size were measured and the results are expressed as the measurement made in the treated group (T) divided by the measurement made in the vehicle treated control group (C). The tumor model used in this assay is Lewis Lung Carcinoma (subcutaneous) in B6D2F1 (BDF1) mice

[1] = endpoint: mean tumor weight, dose: 100.0 mg/kg/injection, schedule: Q01DX011 (ip), vehicle: saline, higher = larger tumour
[2] = endpoint: median survival time, dose: 6.25 mg/kg/injection, schedule: Q01DX009 (ip), vehicle: Klucel (hydroxypropylcellulose) (HPC), higher = longer survival
[3] = endpoint: median survival time, dose: 12.5 mg/kg/injection, schedule: Q01DX009 (ip), vehicle: Klucel (hydroxypropylcellulose) (HPC), higher = longer survival

O=[N+]([O-])O.[Ga]
T/C (endpoint: median survival time, dose: 8.0 mg/kg/injection, schedule: Q01DX009 (ip), vehicle: saline, higher = longer survival): 118 % of control | T/C (endpoint: median survival time, dose: 16.0 mg/kg/injection, schedule: Q01DX009 (ip), vehicle: saline, higher = longer survival): 158 % of control | T/C (endpoint: median survival time, dose: 32.0 mg/kg/injection, schedule: Q01DX009 (ip), vehicle: saline, higher = longer survival): 99 % of control

CCCCCCCCCCCCCS
T/C (endpoint: mean tumor weight, dose: 66.0 mg/kg/injection, schedule: Q01DX011 (ip), vehicle: saline, higher = larger tumour): 106 % of control | T/C [1]: 77 % of control | T/C (endpoint: mean tumor weight, dose: 150.0 mg/kg/injection, schedule: Q01DX011 (ip), vehicle: saline, higher = larger tumour): 91 % of control

CCCCCCCCCCCCCCCC(=O)OCC1OC(n2ccc(N)nc2=O)C(O)C1O (stereo not given)
T/C (endpoint: median tumor weight (est.), dose: 12.0 mg/kg/injection, schedule: Q01DX015 (ip), vehicle: saline with Tween-80, higher = larger tumour): 54 % of control | T/C (endpoint: median tumor weight (est.), dose: 18.0 mg/kg/injection, schedule: Q01DX015 (ip), vehicle: saline with Tween-80, higher = larger tumour): 66 % of control | T/C (endpoint: median tumor weight (est.), dose: 27.0 mg/kg/injection, schedule: Q01DX015 (ip), vehicle: saline with Tween-80, higher = larger tumour): 59 % of control

CN(C)CCCN1c2ccccc2Sc2ccc(C(F)(F)F)cc21
T/C (endpoint: mean tumor weight, dose: 12.0 mg/kg/injection, schedule: Q01DX011 (ip), vehicle: saline, higher = larger tumour): 81 % of control | T/C (endpoint: mean tumor weight, dose: 25.0 mg/kg/injection, schedule: Q01DX011 (ip), vehicle: saline, higher = larger tumour): 44 % of control

COc1ccccc1-c1cc(=O)c2ccc(OC)c(OC)c2o1
T/C (endpoint: mean tumor weight, dose: 18.8 mg/kg/injection, schedule: Q01DX010 (ip), vehicle: saline, higher = larger tumour): 99 % of control | T/C (endpoint: mean tumor weight, dose: 37.5 mg/kg/injection, schedule: Q01DX010 (ip), vehicle: saline, higher = larger tumour): 81 % of control | T/C (endpoint: mean tumor weight, dose: 75.0 mg/kg/injection, schedule: Q01DX010 (ip), vehicle: saline, higher = larger tumour): 108 % of control | T/C (endpoint: mean tumor weight, dose: 150.0 mg/kg/injection, schedule: Q01DX010 (ip), vehicle: saline, higher = larger tumour): 76 % of control

CCOc1ccccc1C1N(Cc2ccc(OC)cc2)CCCN1Cc1ccc(OC)cc1
T/C (endpoint: mean tumor weight, dose: 74.0 mg/kg/injection, schedule: Q01DX011 (ip), vehicle: other, higher = larger tumour): 103 % of control | T/C (endpoint: mean tumor weight, dose: 111.0 mg/kg/injection, schedule: Q01DX011 (ip), vehicle: other, higher = larger tumour): 93 % of control | T/C (endpoint: mean tumor weight, dose: 166.0 mg/kg/injection, schedule: Q01DX011 (ip), vehicle: other, higher = larger tumour): 93 % of control

O=NN(CCCl)C(=O)Nc1ncc([N+](=O)[O-])s1
T/C (endpoint: median survival time, dose: 154.0 mg/kg/injection, schedule: Q01DX001 (ip), vehicle: other, higher = longer survival): 112 % of control

CC1(C)OCC(CO)(Nc2nc(N3CC3)nc(N3CC3)n2)CO1
T/C (endpoint: median survival time, dose: 0.62 mg/kg/injection, schedule: Q01DX009 (ip), vehicle: saline, higher = longer survival): 100 % of control and 119 % of control | T/C (endpoint: median survival time, dose: 1.25 mg/kg/injection, schedule: Q01DX009 (ip), vehicle: saline, higher = longer survival): 115 % of control and 116 % of control | T/C (endpoint: median survival time, dose: 2.5 mg/kg/injection, schedule: Q01DX009 (ip), vehicle: saline, higher = longer survival): 112 % of control

CC1OC(Oc2c(-c3cc(O)c(O)c(O)c3)oc3cc(O)cc(O)c3c2=O)C(O)C(O)C1O (stereo not given)
T/C (endpoint: mean tumor weight, dose: 100.0 mg/kg/injection, schedule: Q01DX011 (ip), vehicle: carboxymethylcellulose (CMC), higher = larger tumour): 59 % of control | T/C (endpoint: mean tumor weight, dose: 200.0 mg/kg/injection, schedule: Q01DX011 (ip), vehicle: carboxymethylcellulose (CMC), higher = larger tumour): 49 % of control | T/C (endpoint: mean tumor weight, dose: 400.0 mg/kg/injection, schedule: Q01DX011 (ip), vehicle: carboxymethylcellulose (CMC), higher = larger tumour): 50 % of control

CC[C@H](CC[C@@H](C)[C@H]1CC[C@H]2[C@@H]3CC=C4C[C@@H](O)CC[C@]4(C)[C@H]3CC[C@]12C)C(C)C
T/C (endpoint: mean tumor weight, dose: 15.0 mg/kg/injection, schedule: Q01DX011 (ip), vehicle: water, higher = larger tumour): 72 % of control | T/C (endpoint: mean tumor weight, dose: 25.0 mg/kg/injection, schedule: Q01DX011 (ip), vehicle: water, higher = larger tumour): 74 % of control | T/C (endpoint: mean tumor weight, dose: 40.0 mg/kg/injection, schedule: Q01DX011 (ip), vehicle: water, higher = larger tumour): 47 % of control | T/C (endpoint: mean tumor weight, dose: 100.0 mg/kg/injection, schedule: Q01DX011 (ip), vehicle: water, higher = larger tumour): 47 % of control | T/C (endpoint: mean tumor weight, dose: 150.0 mg/kg/injection, schedule: Q01DX011 (ip), vehicle: water, higher = larger tumour): 32 % of control | T/C (endpoint: mean tumor weight, dose: 225.0 mg/kg/injection, schedule: Q01DX011 (ip), vehicle: water, higher = larger tumour): 11 % of control

CC(=O)OCC(=O)[C@@]1(O)CC[C@H]2[C@@H]3C[C@H](C)C4=CC(=O)C=C[C@]4(C)[C@@]3(Br)[C@@H](O)C[C@@]21C
T/C (endpoint: mean tumor weight, dose: 0.56 mg/kg/injection, schedule: Q01DX011 (sc), vehicle: steriod suspending solution, higher = larger tumour): 89 % of control | T/C (endpoint: mean tumor weight, dose: 1.12 mg/kg/injection, schedule: Q01DX011 (sc), vehicle: steriod suspending solution, higher = larger tumour): 69 % of control | T/C (endpoint: mean tumor weight, dose: 4.5 mg/kg/injection, schedule: Q01DX011 (sc), vehicle: steriod suspending solution, higher = larger tumour): 57 % of control and 72 % of control | T/C (endpoint: mean tumor weight, dose: 5.3 mg/kg/injection, schedule: Q01DX011 (sc), vehicle: steriod suspending solution, higher = larger tumour): 50 % of control | T/C (endpoint: mean tumor weight, dose: 7.9 mg/kg/injection, schedule: Q01DX011 (sc), vehicle: steriod suspending solution, higher = larger tumour): 45 % of control | T/C (endpoint: mean tumor weight, dose: 9.0 mg/kg/injection, schedule: Q01DX011 (sc), vehicle: steriod suspending solution, higher = larger tumour): 52 % of control | T/C (endpoint: mean tumor weight, dose: 11.8 mg/kg/injection, schedule: Q01DX011 (sc), vehicle: steriod suspending solution, higher = larger tumour): 31 % of control | T/C (endpoint: mean tumor weight, dose: 17.7 mg/kg/injection, schedule: Q01DX011 (ip), vehicle: carboxymethylcellulose (CMC), higher = larger tumour): 44 % of control | T/C (endpoint: mean tumor weight, dose: 17.7 mg/kg/injection, schedule: Q01DX011 (sc), vehicle: steriod suspending solution, higher = larger tumour): 28 % of control and 38 % of control | T/C (endpoint: mean tumor weight, dose: 18.0 mg/kg/injection, schedule: Q01DX011 (sc), vehicle: steriod suspending solution, higher = larger tumour): 42 % of control | T/C (endpoint: mean tumor weight, dose: 26.6 mg/kg/injection, schedule: Q01DX011 (ip), vehicle: carboxymethylcellulose (CMC), higher = larger tumour): 48 % of control | T/C (endpoint: mean tumor weight, dose: 26.6 mg/kg/injection, schedule: Q01DX011 (sc), vehicle: steriod suspending solution, higher = larger tumour): 37 % of control | T/C (endpoint: mean tumor weight, dose: 27.0 mg/kg/injection, schedule: Q01DX011 (sc), vehicle: steriod suspending solution, higher = larger tumour): 37 % of control | T/C (endpoint: mean tumor weight, dose: 40.0 mg/kg/injection, schedule: Q01DX011 (ip), vehicle: carboxymethylcellulose (CMC), higher = larger tumour): 13 % of control | T/C (endpoint: mean tumor weight, dose: 40.0 mg/kg/injection, schedule: Q01DX011 (sc), vehicle: steriod suspending solution, higher = larger tumour): 32 % of control | T/C (endpoint: mean tumor weight, dose: 50.0 mg/kg/injection, schedule: Q01DX011 (ip), vehicle: carboxymethylcellulose (CMC), higher = larger tumour): 59 % of control | T/C (endpoint: mean tumor weight, dose: 60.0 mg/kg/injection, schedule: Q01DX011 (ip), vehicle: carboxymethylcellulose (CMC), higher = larger tumour): 6 % of control | T/C (endpoint: mean tumor weight, dose: 60.0 mg/kg/injection, schedule: Q01DX011 (sc), vehicle: steriod suspending solution, higher = larger tumour): 34 % of control

CC[CH2][Pb]([CH2]CC)([CH2]CC)[N]1C(=O)c2ccccc2C1=O
T/C (endpoint: median survival time, dose: 3.13 mg/kg/injection, schedule: Q01DX009 (ip), vehicle: Klucel (hydroxypropylcellulose) (HPC), higher = longer survival): 96 % of control | T/C [2]: 87 % of control | T/C [3]: 102 % of control

C[n+]1cccc(C(=O)O)c1
T/C (endpoint: mean tumor weight, dose: 50.0 mg/kg/injection, schedule: Q01DX011 (ip), vehicle: saline, higher = larger tumour): 116 % of control | T/C [1]: 75 % of control | T/C (endpoint: mean tumor weight, dose: 200.0 mg/kg/injection, schedule: Q01DX011 (ip), vehicle: saline, higher = larger tumour): 60 % of control

C/C=C(\C)c1cc(=O)c2c(C)cc3c(c2o1)C(=O)c1c(O)c(C2CC(C)(N(C)C)C(O)C(C)O2)cc(C2CC(N(C)C)C(O)C(C)O2)c1C3=O (stereo not given)
T/C (endpoint: median survival time, dose: 0.5 mg/kg/injection, schedule: Q01DX009 (ip), vehicle: Klucel (hydroxypropylcellulose) (HPC), higher = longer survival): 100 % of control | T/C (endpoint: median survival time, dose: 2.0 mg/kg/injection, schedule: Q01DX009 (ip), vehicle: Klucel (hydroxypropylcellulose) (HPC), higher = longer survival): 96 % of control

Nc1cc2nc3ccccc3sc-2cc1=O
T/C (endpoint: median survival time, dose: 50.0 mg/kg/injection, schedule: Q01DX009 (ip), vehicle: saline with Tween-80, higher = longer survival): 104 % of control | T/C (endpoint: median survival time, dose: 100.0 mg/kg/injection, schedule: Q01DX009 (ip), vehicle: saline with Tween-80, higher = longer survival): 90 % of control

CCC(C)CCC/C=C/CC(=O)NC(CC(=O)O)C(=O)NC(C(=O)NC(CC(=O)O)C(=O)NCC(=O)NC(CC(=O)O)C(=O)NCC(=O)NC(C(=O)NC(C(=O)N1CCCC1C(=O)NC(C)C1NC(=O)C2CCCCN2C1=O)C(C)C)C(C)N)C(C)C(=O)O (stereo not drawn) (X3-D[ξAsp(βξ-Me)]DGDG[ξAbu(3ξ-NH2)]VP-X4; configuration not given here)
T/C (endpoint: median survival time, dose: 100.0 mg/kg/injection, schedule: Q01DX009 (ip), vehicle: saline + alcohol, higher = longer survival): 124 % of control | T/C (endpoint: median survival time, dose: 200.0 mg/kg/injection, schedule: Q01DX009 (ip), vehicle: saline + alcohol, higher = longer survival): 99 % of control

C=C(C)C(=O)O[C@H]1[C@H]2[C@H](OC(=O)[C@H]2C)[C@H](O)[C@@H](C)[C@@H]2C=CC(=O)[C@]21C
T/C (endpoint: median survival time, dose: 15.0 mg/kg/injection, schedule: Q01DX009 (ip), vehicle: saline, higher = longer survival): 113 % of control | T/C (endpoint: median survival time, dose: 30.0 mg/kg/injection, schedule: Q01DX009 (ip), vehicle: saline, higher = longer survival): 104 % of control

CCCn1cnc2c(SCc3ccccc3Cl)nc(N)nc21
T/C (endpoint: mean tumor weight, dose: 25.0 mg/kg/injection, schedule: Q01DX011 (ip), vehicle: other, higher = larger tumour): 66 % of control | T/C (endpoint: mean tumor weight, dose: 50.0 mg/kg/injection, schedule: Q01DX011 (ip), vehicle: other, higher = larger tumour): 102 % of control | T/C (endpoint: mean tumor weight, dose: 100.0 mg/kg/injection, schedule: Q01DX011 (ip), vehicle: other, higher = larger tumour): 89 % of control | T/C (endpoint: mean tumor weight, dose: 200.0 mg/kg/injection, schedule: Q01DX011 (ip), vehicle: other, higher = larger tumour): 65 % of control

O=NN(CCCl)C(=O)Nc1cc2c3ccccc3ccc2c2ccccc12
T/C (endpoint: median survival time, dose: 3.12 mg/kg/injection, schedule: Q01DX009 (ip), vehicle: Klucel (hydroxypropylcellulose) (HPC), higher = longer survival): 95 % of control | T/C [2]: 100 % of control | T/C [3]: 96 % of control
